Source: US7387715B2, “Sample positioning and analysis system” (priority 1997, dated 2008)
Non-standard residues stand in square brackets, D forms with d. Residues, ends and D or L forms follow the SMILES beside them. Phe(ol) = N[C@H](CO)Cc1ccccc1; Aib = CC(C)(N)C(=O)O

Assays:
[1] = Voltage-clamp current recording of alamethicin pores in a vesicle-derived membrane over a chip aperture; assay type: biochemical; conditions: alamethicin 0.1 μg/mL final concentration in measurement compartment, 85 mM KCl
Description: In these experiments, a membrane is formed over an aperture in 85 mM KCl. Next, alamethicin is added to the measurement compartment, to a final concentration of 0.1 μg/mL.^xvii Finally, a potential is applied, and a plot of current versus time is generated.

[2] = system: nAChR (nicotinic acetylcholine receptor); test: Voltage-clamp current recording of nAChR fused into a membrane on a Si/SiO2 carrier chip; assay type: biochemical; conditions: carbamylcholine 20 μM final concentration
Description: In these experiments, a membrane is formed as above. Next, nAChR is introduced into the membrane via Ca^2+-mediated fusion. Specifically, nAChR is purified from an appropriate source, and then reconstituted into small unilamellar vesicles.^xviii Next, these vesicles are added to the measurement compartment, and then fused to the membrane by increasing the Ca^2+ concentration of the sample chamber to greater than about 1 mM. In given cases, the fusion is supported by the subsequent temporary setup of an osmotic gradient.^xix Finally, a potential is applied, and a plot of current versus time is generated. In the absence of agonists, typical receptor opening events are observed (FIG. 15A), whereas, in the presence of agonists, such as carbamylcholine (20 μM final concentration), such receptor opening events are substantially extinguished within a short time (t<100 seconds) (FIG. 15B).

Compound	conductivities of the alamethicin pores [1] [pS]	receptor openings after addition of the agonist (desensitization) ([2]; 150 seconds after addition, 400 mM KCl, positive potentials)	time within which receptor opening events are substantially extinguished in the presence of agonist [2] [s]
CC(=O)NC(C)(C)C(=O)N1CCC[C@H]1C(=O)NC(C)(C)C(=O)N[C@@H](C)C(=O)NC(C)(C)C(=O)N[C@@H](C)C(=O)N[C@@H](CCC(N)=O)C(=O)NC(C)(C)C(=O)N[C@H](C(=O)NC(C)(C)C(=O)NCC(=O)N[C@@H](CC(C)C)C(=O)NC(C)(C)C(=O)N1CCC[C@H]1C(=O)N[C@H](C(=O)NC(C)(C)C(=O)NC(C)(C)C(=O)N[C@@H](CCC(=O)O)C(=O)N[C@@H](CCC(N)=O)C(=O)N[C@H](CO)Cc1ccccc1)C(C)C)C(C)C [alamethicin] (Ac-[Aib]P[Aib]A[Aib]AQ[Aib]V[Aib]GL[Aib]PV[Aib][Aib]EQ[Phe(ol)])	600	–	–
C[N+](C)(C)CCOC(N)=O.[Cl-] [carbamylcholine]	–	no receptor openings are observed	< 100
